The test deals with American upland cotton. Briefly: Spray treatment of mature American upland cotton, evaluated 10, 14 and 21 days after treatment. The class given is in vivo.
Setting [1] is: 10 days after treatment, (+) EBNG = 0.13 lb/acre.
[2] abbreviates: 14 days after treatment, (+) EBNG = 0.13 lb/acre.
The mark [3] stands for this setting: 21 days after treatment, (+) EBNG = 0.13 lbs/acre.

From patent US20030158041A1, “Methods of and compositions for plant defoliation” (priority 2001, published 2003) come the findings set out here.

In the case of `CCC(NC(=N)N[N+](=O)[O-])c1ccccc1` (single isomer, unassigned; (+)) [(+) EBNG, (+)-1-(α-ethylbenzyl)-3-nitroguanidine], under setting [1], the “% Dead Leaves On Plants” value was 8.3% and the “% Dropped Leaves” value came out at 90.0%. Under setting [2], the “% Dead Leaves On Plants” value was found to be 5.7%, the “% Dropped Leaves” value came to 93.0%, the “% New Growth Leaves” value turned out to be 1.0% and the “% Open Fruits” value stood at 96.0%. For the same compound, under setting [3], the “% New Growth Leaves” value was found to be 3.7% and the “% Open Fruits” value worked out at 98.3%.
